Values quoted from earlier work as cited in US20030139355A1, “Medicine for orthopaedic surgical application and a treating method using thereof” (priority 2001, published 2003).

Key:
selectins = details: in vitro; J. Biol. Chem. 1994
[1] = test system: ischemia reperfusion disorder in liver; details: literature reports

CC1(C)[C@@H](O[C@H]2O[C@H](C(=O)O)[C@@H](O)[C@H](O)[C@H]2O[C@@H]2O[C@H](C(=O)O)[C@@H](O)[C@H](O)[C@H]2O)CC[C@]2(C)[C@H]3C(=O)C=C4[C@@H]5C[C@@](C)(C(=O)O)CC[C@]5(C)CC[C@@]4(C)[C@]3(C)CC[C@@H]12 [glycyrrhizin]
Binding between Sialyl-Lewis X and selectins (selectins): prevents binding between Sialyl-Lewis X and selectins
Inhibitory effects on ischemia reperfusion disorder in liver [1]: effectively exhibits inhibitory effects
